Assays:
Test in all cases: relative viability (nuclei count vs DMSO), 5 days (fraction); higher = more cells survive
Obatoclax + Luminespib = compound: COC1=CC(c2cc3ccccc3[nH]2)=N/C1=C\c1[nH]c(C)cc1C [Obatoclax] + CCNC(=O)c1noc(-c2cc(C(C)C)c(O)cc2O)c1-c1ccc(CN2CCOCC2)cc1 [Luminespib] (partner 0.01 µM)
Summary of the method: (§1)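 Each reported value is a median over duplicate plates. It expresses relative viability: treated-well nuclei count divided by vehicle-well nuclei count. Lung cancer cell lines in 1536-well plates were dosed by pin tool a day after seeding, alone with one drug or with a fixed anchor-drug dose plus five library-drug doses (not always all listed) in √10 steps, and nuclei were counted after 5 days.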

[1] = compound: CC1=CC(=NN1)NC2=CC(=NC(=N2)/C=C/C3=CC=CC=C3)N4CCN(CC4)C + CCNC(=O)c1noc(-c2cc(C(C)C)c(O)cc2O)c1-c1ccc(CN2CCOCC2)cc1 [Luminespib] (partner 0.01 µM)
Summary of the method: as §1

Bortezomib + Pictilisib = compound: CC(C)C[C@H](NC(=O)[C@H](Cc1ccccc1)NC(=O)c1cnccn1)B(O)O [Bortezomib] + CS(=O)(=O)N1CCN(Cc2cc3nc(-c4cccc5[nH]ncc45)nc(N4CCOCC4)c3s2)CC1 [Pictilisib] (partner 1 µM)
Summary of the method: as §1

Bortezomib + Pemetrexed = compound: CC(C)C[C@H](NC(=O)[C@H](Cc1ccccc1)NC(=O)c1cnccn1)B(O)O [Bortezomib] + Nc1nc2[nH]cc(CCc3ccc(C(=O)N[C@@H](CCC(=O)O)C(=O)O)cc3)c2c(=O)[nH]1 [Pemetrexed] (partner 0.2 µM)
Summary of the method: as §1

Row | Cell Line | relative viability (Obatoclax + Luminespib; first compound 0.01 µM) | relative viability (Obatoclax + Luminespib; first compound 0.03162 µM) | relative viability (Obatoclax + Luminespib; first compound 0.1 µM) | relative viability (Obatoclax + Luminespib; first compound 0.3162 µM) | relative viability (Obatoclax + Luminespib; first compound 1 µM) | relative viability ([1]; first compound 0.08 µM) | relative viability ([1]; first compound 0.253 µM) | relative viability ([1]; first compound 0.8 µM) | relative viability ([1]; first compound 2.53 µM) | relative viability ([1]; first compound 8 µM) | relative viability (Bortezomib + Pictilisib; first compound 0.0002 µM) | relative viability (Bortezomib + Pictilisib; first compound 0.000632 µM) | relative viability (Bortezomib + Pictilisib; first compound 0.002 µM) | relative viability (Bortezomib + Pictilisib; first compound 0.006325 µM) | relative viability (Bortezomib + Pictilisib; first compound 0.02 µM) | relative viability (Bortezomib + Pemetrexed; first compound 0.0002 µM) | relative viability (Bortezomib + Pemetrexed; first compound 0.000632 µM) | relative viability (Bortezomib + Pemetrexed; first compound 0.002 µM) | relative viability (Bortezomib + Pemetrexed; first compound 0.006325 µM) | relative viability (Bortezomib + Pemetrexed; first compound 0.02 µM)
1 | NCI-H358 | 0.395 | 0.245 | 0.449 | 0.351 | 0.161 | 0.35 | 0.303 | 0.261 | 0.206 | 0.0878 | 0.331 | 0.305 | 0.357 | 0.207 | 0.16 | 0.163 | 0.182 | 0.171 | 0.104 | 0.0993
2 | NCI-H441 | 0.416 | 0.316 | 0.278 | 0.223 | 0.236 | 0.471 | 0.466 | 0.409 | 0.31 | 0.142 | 0.483 | 0.315 | 0.35 | 0.0918 | 0.102 | 0.248 | 0.244 | 0.253 | 0.104 | 0.118
3 | NCI-H460 | 0.0359 | 0.0371 | 0.0282 | 0.0268 | 0.019 | 0.0265 | 0.0399 | 0.0277 | 0.0233 | 0.0124 | 0.334 | 0.376 | 0.435 | 0.36 | 0.346 | 0.0729 | 0.0627 | 0.0658 | 0.0625 | 0.0303
4 | NCI-H520 | 0.231 | 0.215 | 0.257 | 0.246 | 0.205 | 0.25 | 0.269 | 0.186 | 0.195 | 0.242 | 0.269 | 0.283 | 0.229 | 0.184 | 0.184 | 0.511 | 0.785 | 0.3 | 0.17 | 0.139
5 | NCI-H596 | 1.04 | 0.852 | 0.859 | 0.611 | 0.574 | 1.04 | 0.927 | 0.777 | 0.402 | 0.2 | 0.513 | 0.369 | 0.327 | 0.15 | 0.128 | 0.487 | 0.488 | 0.45 | 0.268 | 0.221
6 | NCI-H647 | 0.128 | 0.186 | 0.179 | 0.21 | 0.114 | 0.308 | 0.267 | 0.104 | 0.172 | 0.0506 | 0.331 | 0.287 | 0.364 | 0.0521 | 0.0347 | 0.17 | 0.199 | 0.134 | 0.0326 | 0.0194
7 | NCI-H661 | 0.917 | 0.937 | 0.921 | 0.808 | 0.601 | 0.907 | – | 0.919 | 0.55 | 0.321 | 0.355 | 0.328 | 0.435 | 0.335 | 0.225 | 0.887 | 0.89 | 0.88 | 0.594 | 0.23
8 | NCI-H838 | 0.226 | 0.222 | 0.3 | 0.243 | 0.188 | 0.31 | 0.26 | 0.242 | 0.25 | 0.118 | 0.425 | 0.499 | 0.556 | 0.158 | 0.128 | 0.252 | 0.231 | 0.264 | 0.161 | 0.161
9 | NCI-H1355 | 0.641 | 0.588 | 0.769 | 0.632 | 0.78 | 0.744 | 0.644 | 0.682 | 0.47 | 0.129 | 0.376 | 0.396 | 0.497 | 0.202 | 0.136 | 1.02 | 0.97 | 1.06 | 0.711 | 0.13
10 | NCI-H1395 | 0.634 | 0.491 | 0.701 | 0.523 | 0.421 | 0.782 | 0.687 | 0.699 | 0.401 | 0.293 | 0.566 | 0.58 | 0.531 | 0.445 | 0.294 | 0.77 | 0.767 | 0.579 | 0.26 | 0.264
11 | NCI-H1437 | 1.09 | 1.17 | 1.04 | 0.983 | 0.956 | 1.11 | 1.13 | 1.13 | 0.996 | 0.53 | 0.41 | 0.512 | 0.434 | 0.0867 | 0.0795 | 0.284 | 0.301 | 0.351 | 0.172 | 0.157
12 | NCI-H1563 | 0.519 | 0.528 | 0.529 | 0.503 | 0.517 | 0.498 | 0.554 | 0.537 | 0.553 | 0.434 | 0.68 | 0.622 | 0.655 | 0.538 | 0.486 | 0.885 | 0.848 | 0.744 | 0.809 | 0.575
13 | NCI-H1650 | 0.172 | 0.208 | 0.21 | 0.202 | 0.23 | 0.19 | 0.184 | 0.206 | 0.203 | 0.183 | 0.24 | 0.488 | 0.17 | 0.153 | 0.15 | 0.403 | 0.335 | 0.141 | 0.13 | 0.186
14 | NCI-H1651 | 0.866 | 0.792 | 1.16 | 0.811 | 0.516 | 0.754 | 0.854 | 0.912 | 0.643 | 0.244 | 0.406 | 0.532 | 0.591 | 0.0909 | 0.0929 | 0.603 | 0.618 | 0.565 | 0.594 | 0.362
15 | NCI-H1666 | 1.05 | 1.06 | 1.03 | 0.509 | 0.378 | 0.987 | 1.01 | 1.02 | 0.985 | 0.328 | 0.451 | 0.518 | 0.41 | 0.198 | 0.168 | 0.816 | 0.872 | 0.858 | 0.579 | 0.443
16 | NCI-H1734 | 0.201 | 0.188 | 0.2 | 0.187 | 0.18 | 0.178 | 0.236 | 0.163 | 0.145 | 0.109 | 0.483 | 0.301 | 0.36 | 0.224 | 0.128 | 0.419 | 0.407 | 0.451 | 0.178 | 0.114

— the supplement of paper PMC10307832
